Assay results: article doi:10.1101/2025.01.24.634724, “Receptor Activity-Modifying Protein 3 enhances GLP-1-mediated Insulin Secretion” (bioRxiv, 2025)
Values joined by “and” are separate entries in the source; they are usually repeats but may differ in a detail not shown here. Identical values can stand only once. “Also recorded” adds a separate entry of the source. Numbered stars: 1 amine (or outer) side, 2 acyl side, 3 side chain; on linkers, the order of the positions; unused ones are H or OH. Bridge positions count the residues as written; N and C are the ends. Square brackets hold non-standard residues; d marks the D form. Peptide text beside a SMILES is read from it. X1 = CC(=O)NC(C(=O)OC(C(C)C)C(N[*:1])C(=O)[*:2])C(O)C(C)C; PhLac = O=C(O)[CH](O)Cc1ccccc1; NMeT = CN[CH](C(=O)O)[CH](C)O; NMeA = CN[CH](C)C(=O)O; NMeDha = C=C(NC)C(=O)O

Tests used:
[1] = tested on: CLR-RAMP1; details: cited from earlier work
Source text: As RAMP3 expression varies between tissues, it is possible that by directly targeting this complex, tissue specific receptor activation could be facilitated. […] Agonists which have reduced affinity for the RAMP3 complex over receptor alone ...

[2] = tested on: INS-1 832/3 cells; test: Insulin secretion (GSIS), INS-1 832/3; type: cell-based, rat; details: for effect of inhibitor on GLP-1-mediated insulin secretion: 10nM GLP-1, vector or RAMP3, 30 min inhibitor pre-treatment (YM-254890 100nM, PTX 0.2ng/μL), n>4
Procedure: (§1) Insulin content was measured with the insulin ultra-sensitive detection kit (Cisbio).

[3] = tested on: LgBiT-GLP-1R with SmBiT-RAMP1 or -RAMP2; test: NanoBiT/BRET fluorescent ligand binding with SmBiT-RAMP1 or -RAMP2; details: SmBiT-RAMP1 or -RAMP2, HEK293T
[4] = tested on: Ramp1/Ramp3 knockout mice; details: mouse models; dual Ramp1/Ramp3 deletion ref 43 (Leuthardt et al.); cited from earlier work
Source text: It is possible this difference is due to lower receptor expression, or a differential effect on bias for the rodent receptors than the human. Species differences in signalling bias have been observed for other GPCRs associated with islet cell pharmacology ([41]), so it stands to reason this might be influencing the differences o ...

[5] = tested on: wildtype SvEv129/SJ and isogenic Ramp3−/− male mice; test: Insulin tolerance test (ITT), blood glucose, WT and Ramp3−/− mice; type: in vivo, mouse; details: GLP-1 50nmol/kg subQ 15 min before insulin 1IU/kg i.p., n=5
Source text: (§2) Ramp3^−/− mice and genotyping have been previously described ([34]).

[6] = tested on: GCGR with RAMP2; details: RAMP2 co-expression ref 13; cited from earlier work
Source text: Signalling bias can also be influenced by the tissue, due to differential expression of signalling proteins, as well as allosteric modulators. A common protein allosteric modulator of Class B1 GPCRs are the receptor activity-modifying proteins (RAMPs). First discovered for the calcitonin-like receptor, with which they form obligate heterodimers, RAMPs influence the expression, affinity, and signalling bias of the receptor. For the calcitonin family, this leads to receptors considered functionally distinct ([10], [11]), although smaller effects are observed on other receptors e.g. the vasoactiv ...

[7] = tested on: wildtype SvEv129/SJ and isogenic Ramp3−/− male mice; test: IPGTT plasma insulin, WT and Ramp3−/− mice; type: in vivo, mouse; details: GLP-1 50nmol/kg subQ, 15 min after glucose 2g/kg i.p., n=5
Source text: as §2

[8] = tested on: Min6 B1 cells; test: Insulin secretion, siRNA treated Min6 B1; type: cell-based, mouse; details: 10nM or 1nM peptide with 10mM glucose; Min6 B1, n=4
Procedure: as §1

[9] = tested on: Nluc-GLP-1R; test: (Ca2+)i mobilisation, HEK293T; type: cell-based
Procedure: HEK293T cells were transfected with 100ng Nluc-GLP-1R and 200ng of pcDNA3.1 or FLAG-RAMP3, or 100ng of pcDNA3.1 and FLAG- RAMP3 per 100μl cells and seeded in a 0.01% PLL-coated black-walled clear-bottom 96-well plate. 48 hours later media was removed, and cells were incubated in 10μM Fluor4-AM dye containing 2.5mM probenecid for 1 hour at room temperature. Cells were washed and dye replaced with Hank’s Balanced Salt Solution (Lonza) without Ca^2+ containing 0.1% BSA w/v. […] The response to vehicle was taken to be 0%, and the response to 10 μM ionomycin was used as 100%. For HEK293T cells, the maximal fluorescence was used for further analysis.

[10] = tested on: Nluc-GLP-1R; test: cAMP accumulation, HEK293T; type: cell-based
[11] = tested on: GLP-1R / Gαs; test: TRUPATH G protein dissociation, Gαs; type: cell-based; details: HEK293T
Procedure: (§3) G Protein dissociation assays were performed using the TRUPATH biosensor platform, as described ([28]). HEK293T cells were transfected with GLP-1R, Gα, Gγ, Gβ, and pcDNA3.1 or FLAG-RAMP3 all in equal quantities and incubated overnight. […] Cells were washed with KREBs with 0.1% BSA and incubated in buffer containing 5μM coelenterazine 400a for 5 minutes. Ligands were then added, and plates read using the Pherastar microplate reader using the BRET2 module, at 60-second intervals. The BRET2 ratio was calculated (λ515/λ400) and total dissociation over a 30-minute period used to generate dose response curves.

[12] = tested on: GLP-1R / Gαq(R183Q); test: TRUPATH G protein dissociation, Gαq(R183Q); details: HEK293T, R183Q mutant
Procedure: as §3

[13] = tested on: GLP-1R-Nluc; test: Receptor internalisation (loss of BRET with RIT-Venus), HEK293T; type: cell-based; details: for effect of RAMP3 on internalisation: RAMP3 overexpression
Procedure: Experiments were performed as previously described (([47])).

[14] = tested on: GLP-1R-Nluc; test: β-arrestin recruitment, HEK293T; type: cell-based; details: stated in discussion
[15] = relative to GLP-1 at GLP-1R alone

NCCCC[C@H](NC(=O)[C@@H](Cc1cc(Br)c(O)c(Br)c1)NC(=O)N1CCC(N2Cc3ccccc3NC2=O)CC1)C(=O)N1CCN(c2ccncc2)CC1 [BIBN 4096 BS]
activity at CLR-RAMP1 [1]: CLR-RAMP1 antagonist

CC(C)(C)c1cc(C(=O)/C(C#N)=N/Nc2cccc(Cl)c2)no1 [ESI-09]
effect of inhibitor on GLP-1-mediated insulin secretion [2]: significantly decreased GLP-1 mediated potentiation of GSIS in both vector and RAMP3 transfected cells
effect on insulin secretion with […] glucose alone ([2]; 10μM ESI-09, no GLP-1, n=6): a reduction was also observed on the response to 16.7mM glucose alone; also recorded: a non-significant reduction was also observed in cells stimulated with high glucose alone

Nc1ncnc2c1nc(Br)n2C1OC2COP(O)(=S)OC2C1O (stereo not shown) [Rp-8-Br-cAMPs]
effect of inhibitor on GLP-1-mediated insulin secretion [2]: no effect on insulin secretion, irrespective of the expression of RAMP3

C=C1C(=O)NC(C)C(=O)N(C)C(C)C(=O)NC(C(OC(=O)C(NC(C)=O)C(O)C(C)C)C(C)C)C(=O)N(C)C(C(C)OC)C(=O)OC(C)C(NC(C)=O)C(=O)OC(Cc2ccccc2)C(=O)N1C (stereo not shown) [YM-254890] (Ac-T[PhLac][NMeDha]A[NMeA][X1][NMeT](Me); ester 1-C; configuration not given here)
effect of inhibitor on GLP-1-mediated insulin secretion [2]: the effect of YM-254890 was greater than PTX

Ex-4-Red: Tag-Lite GLP-1 receptor red ligand, based on exendin-4 (Cisbio)
binding of Ex-4-Red [3]: not observed for SmBiT-RAMP1 or -RAMP2

GLP-1 (7–36amide)
effect of Ramp knockout on bodyweight lowering [4]: increase the effect of GLP-1 on bodyweight lowering in mouse models
blood glucose, ITT ([5]; Ramp3−/− mice): lost in Ramp3^−/− mice (Figure 7H)
blood glucose, ITT ([5]; WT mice): potentiated the effects of insulin on blood glucose
insulin secretion [2]: 2.36±0.30 fold over 2.8mM glucose and 3.94±0.33 fold over 2.8mM glucose
effect of RAMP2 on Gαs coupling at GCGR [6]: decreasing the response
plasma insulin, IPGTT ([7]; Ramp3−/− mice): This response was lost in Ramp3^−/− mice; also recorded: no longer able to elevate insulin secretion above vehicle-treated animals
plasma insulin, IPGTT ([7]; WT mice): increased insulin secretion 15 minutes after administration of glucose
effect of RAMP3 knockdown on insulin secretion [8]: attenuated, although the effect was small

GLP-1 (9–36amide) [GLP-1 9–36]
(Ca2+)i mobilisation ([9]; in the absence of RAMP3): unable to elicit any (Ca^2+)i mobilisation in the absence of RAMP3
cAMP production ([10]; 8-minute stimulation, concentration range tested): did not elicit sufficient cAMP production over the concentration range tested

exendin-4: incretin mimetic, approved for T2DM in 2005
effect of RAMP3 on Gαs dissociation [11]: no effect
effect of RAMP3 overexpression on cAMP potency and efficacy ([10]; 8-minute stimulation): reductions in both potency and efficacy observed when RAMP3 was overexpressed
effect of RAMP3 on Gαq(Q) dissociation [12]: no effect
effect of RAMP3 on internalisation [13]: no subsequent effect on internalisation

glucagon: agonist of the glucagon receptor (GCGR)
effect of RAMP2 on Gαs coupling at GCGR [6]: increasing Gαs coupling at GCGR

glucose-dependent insulinotropic polypeptide [GIP]
effect of RAMP1 and RAMP3 on insulin secretion [2]: both RAMP1 and 3 increased insulin secretion
effect of RAMP3 knockdown on insulin secretion [8]: unaffected by RAMP3 knockdown

liraglutide: a synthetic, lipidated GLP-1 mimetic, approved in the treatment of T2DM
effect of RAMP3 on (Ca2+)i mobilisation [9]: no significant effects
effect of RAMP3 on Gαs dissociation [11]: no effect
effect of RAMP2 on Gαs coupling at GCGR [6]: decreasing the response
effect of RAMP3 overexpression on cAMP potency and efficacy ([10]; 8-minute stimulation): reductions in both potency and efficacy observed when RAMP3 was overexpressed
effect of RAMP3 on LogRA, cAMP accumulation / second messenger [10, 15]: lesser effects on second messenger signalling
effect of RAMP3 on Gαq(Q) dissociation [12]: no effect
effect of RAMP3 on internalisation [13]: significant decrease in the potency of internalisation; also recorded: the response to liraglutide was reduced
effect of RAMP3 on LogRA, desensitisation / internalisation [13, 15]: greater reduction in internalisation
inherent signalling bias [14]: bias towards β-arrestin recruitment

oxyntomodulin: an endogenous dual agonist of both GCGR and GLP-1R
effect of RAMP2 on Gαs coupling at GCGR [6]: increasing Gαs coupling at GCGR
effect of RAMP3 overexpression on cAMP potency and efficacy ([10]; 8-minute stimulation): reductions in both potency and efficacy observed when RAMP3 was overexpressed
effect of RAMP3 on Gαq(Q) dissociation [12]: no effect
effect of RAMP3 on internalisation [13]: no subsequent effect on internalisation

pertussis toxin [PTX]
effect of inhibitor on GLP-1-mediated insulin secretion [2]: decreased insulin secretion significantly only when RAMP3 was overexpressed
